Test results reported in PubChem BioAssay (NCI).
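Test compounds were applied to cells in 96-well plates for 48 hours at 5 doses. At the TGI there is no net growth.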

Tests used:
Experiment in all cases: NCI-60 cell line screen, 48 h
[1] = system: IGROV1 ovarian
[2] = system: EKVX NSCLC
[3] = system: NCI/ADR-RES ovarian
[4] = system: CCRF-CEM leukemia
[5] = system: SR leukemia
[6] = system: UO-31 renal
[7] = system: HT29 colon
[8] = system: A549 NSCLC
[9] = system: SK-OV-3 ovarian
[10] = system: MDA-MB-435
[11] = system: HOP-62 NSCLC
[12] = system: U251 CNS
[13] = system: HS 578T breast
[14] = system: SF-539 CNS
[15] = system: K-562 leukemia

| Structure (SMILES) | TGI [1] [µM] | TGI [2] [µM] | TGI [3] [µM] | TGI [4] [µM] | TGI [5] [µM] | TGI [6] [µM] | TGI [7] [µM] | TGI [8] [µM] | TGI [9] [µM] | TGI [10] [µM] | TGI [11] [µM] | TGI [12] [µM] | TGI [13] [µM] | TGI [14] [µM] | TGI [15] [µM] |
| --- | --- | --- | --- | --- | --- | --- | --- | --- | --- | --- | --- | --- | --- | --- | --- |
| COc1cc2c[n+](C)c3c(c2cc1OC)Cc1cc2c(cc1-3)OCO2 | > 100 | > 100 | > 100 | > 100 | > 100 | > 100 | > 100 | > 100 | > 100 | > 100 | > 100 | > 100 | > 100 | > 100 | > 100 |
| Cc1csc(NNC(=O)Nc2ccccc2)n1 | > 100 | > 100 | > 100 | > 100 | > 100 | > 100 | > 100 | > 100 | > 100 | > 100 | > 100 | > 100 | > 100 | > 100 | > 100 |
| CCCCc1c2c(c(C)c3c1C(=O)OC3)Oc1ccccc1O2 | > 100 | > 100 | 20.5 | > 100 | > 40.1 | > 100 | > 40.9 | > 43.2 | > 100 | 1.59 | > 68.3 | 14.9 | 5.8 | 3.67 | 22.4 |
| CC1(C)C2CCC(O)(C2)C1N (stereo not given) | > 100 | > 100 | > 100 | > 100 | > 100 | > 100 | > 100 | > 100 | > 100 | > 100 | > 100 | > 100 | > 100 | > 100 | > 100 |
| O=C1C(S(=O)(=O)c2ccccc2)=C(CS(=O)(=O)c2ccccc2)[C@@H](OCc2ccccc2)[C@@H]1OCc1ccccc1 | 33.8 | > 100 | 54.4 | 42.7 | 33.5 | 37.1 | 26.3 | > 100 | > 100 | 92.7 | 53.2 | 53.3 | 67 | 40.6 | 35.8 |
| N#Cc1ccc(C2NN=CC23C(=O)c2ccccc2OC3c2ccccc2)cc1 (stereo not given) | > 100 | 84.8 | > 100 | > 100 | > 100 | 96.8 | > 100 | > 100 | > 100 | > 100 | > 100 | 55.7 | > 100 | > 100 | > 100 |
| COc1cccc(-c2c(-c3ccccc3)[nH]c(C)c2C(=O)ONC(=O)c2ccccc2)c1 | 3.18 | 23.8 | 26 | > 27.3 | 15.5 | 3.49 | > 45.2 | 9.59 | 29.8 | 13.7 | 10 | 11.4 | 24 | 18.4 | 10.4 |
| C=CC1(C)OC2(CCN(C(=O)OCC)CC2)OC1C (stereo not given) | > 100 | > 100 | > 100 | > 100 | > 100 | > 100 | > 100 | > 100 | > 100 | > 100 | > 100 | > 100 | > 100 | > 100 | > 100 |
| O=C1O/C(=C\c2ccc(O)cc2)C(c2ccc(O)c(Cl)c2)=C1Cl | > 100 | > 100 | 97.6 | > 100 | > 100 | > 100 | > 100 | > 100 | > 100 | 81.7 | > 100 | > 100 | > 100 | > 100 | > 100 |
| CC1=NN(c2nc(N)nc(/C(C#N)=C\c3cccc([N+](=O)[O-])c3)n2)C(C)(C)C1 | 34.1 | > 100 | > 66.7 | > 66.8 | > 73.1 | 15.7 | > 100 | > 56.8 | 57.4 | > 26 | 43.8 | 38.4 | 78.6 | 36.5 | > 35.4 |
| Nc1ccc(Sc2c3ccccc3nc3ccccc23)cc1 | 37.6 | 58.9 | 36 | 30.2 | 32.4 | 34.3 | 32 | > 100 | 59.8 | 35.1 | 56.9 | 28 | > 68.4 | 31 | 22.6 |
| CN(CCCn1ccnc1[N+](=O)[O-])CCCn1ccnc1[N+](=O)[O-] | > 100 | > 100 | > 100 | > 100 | > 100 | > 100 | > 100 | > 100 | > 100 | > 100 | > 100 | > 100 | > 100 | > 100 | > 100 |
| Cc1nnc(Sc2nc(C#N)c(C#N)nc2Sc2nnc(C)s2)s1 | 21.3 | > 73.6 | 51 | 5.15 | > 26.4 | 23.9 | > 23.8 | 56.2 | 34.2 | > 84.7 | > 74.3 | 47.5 | 99.4 | > 60.1 | 12.6 |
| COC1CC(O[C@H]2CC[C@@]3(C)[C@@H](CC[C@]4(O)[C@@H]3CC[C@]3(C)[C@@H](C(C)=O)[C@H](OC(=O)CC(C)C)[C@@H](OC(=O)c5ccccc5)[C@@]34O)C2)OC(C)C1OC1CC(OC)C(OC2OC(C)C(O)C(OC)C2O)C(C)O1 (stereo not given in full) | > 25 | > 25 | > 25 | > 25 | > 25 | > 25 | > 25 | > 25 | > 25 | > 25 | > 25 | > 25 | > 25 | > 25 | > 25 |
